Patent US12173018B2, “Penicillin-binding protein inhibitors” (priority 2018, dated 2024)
Like-named read-outs stand apart in the source and are kept apart here.

Columns and labels:
[1] = target: E. coli PBP3 (Escherichia coli (strain K12), UniProt P0AD68); assay: E. coli PBP3 Bocillin-FL fluorescence polarization competition binding assay
Source text: To determine the ability of boronic acid-based test PBP inhibitors to bind Penicillin Binding Proteins (PBPs), Bocillin-FL (fluorescently-labeled penicillin V; ThermoFisher Scientific) was used in a fluorescence polarization (FP) competition binding assay to assess inhibitor binding to PBP2, PBP3 or PBP4 from Escherichia coli. PBPs were cloned and purified as described previously (King, D. T, et al., ACS Infectious Diseases 2015, 1, 175-184). To establish assay conditions for competition binding, an enzyme titration/saturation binding experiment was initially performed. Bocillin-FL was prepared at 0.2 μM in a buffer comprised of 50 mM Hepes (pH 8.0), 300 mM NaCl and 5% (v/v) glycerol. Saturation binding was performed by mixing 40 μl of PBP solutions ranging in concentrations from 0-12 μM with 40 μl of the 0.2 μM Bocillin-FL solution, in individual wells of a black 384-well microplate. FP was measured immediately upon mixing (Excitation, 490 nm; Emission, 520 nm; g-factor, 0.96), using a Cytation3 (BioTek) microplate reader and measured continuously for up to 120 minutes. […] Assays (80 μl final volume) were performed with PBPs at a final concentration of 1.5 μM, Bocillin-FL at 0.1 μM and beta-lactam concentrations that ranged from 0-1000 μM. […] Bocillin-FL was added and the FP immediately measured for 60 minutes (90 minutes for PBP2). The beta-lactam potency was reported as the concentration of beta-lactam required to reduce binding of Bocillin-FL by […] (EC50). […] Binding assays for boronic acid PBP inhibitors were performed in an identical fashion.

[2] = test system: E. coli ATCC 25922; assay: Broth microdilution MIC, E. coli ATCC 25922; format: cell-based; settings: Escherichia coli
Method: (§1) To determine the ability of test compounds to potentiate the inhibition of the growth of bacterial strains, classic cell based broth microdilution minimum inhibitory concentration (MIC) assays were employed. MIC assays are performed according to CLSI methods except where otherwise noted (CLSI, 2011 and CLSI, 2009). The reference type strain E. coli ATCC 25922, the wild-type parent strain E. coli AG100, the hyper-permeable E. coli 901C and E. coli D22 and the E. coli AG100A strain lacking the acrAB efflux pump encoding genes were used to determine the ability of the PBP inhibitors to penetrate the outer membrane of gram-negative bacteria and inhibit bacterial growth. […] The P. aeruginosa PAO1, P. aeruginosa ATCC 27853 and A. baumannii ATCC 19606, along with the hyper-permeable P. aeruginosa ATCC 35151 and an engineered efflux pump-compromised strain of P. aeruginosa (ΔmexAB-oprM) were used to determine the ability of PBP inhibitors to penetrate the outer membrane of P. aeruginosa and A. baumannii and assess antibacterial activity against these important gram-negative organisms.
(§2) Briefly, cryo-preserved bacterial cultures of challenge strains are streaked for isolation on appropriate agar medium, in this case Mueller Hinton II agar. Following incubation to allow growth of the colonies, plates are sealed with parafilm and stored refrigerated for up to two weeks. For preparation of assay inoculum and to ensure low variability, at least 5 colonies are picked from the agar plates with an inoculating loop and aseptically transferred to a culture tube containing 3 mL of Mueller-Hinton Broth (supplemented with divalent cations to required levels based on Manufacturers' certification). The broth culture is grown for 3-5 hours at 37° C. with shaking at 200 rpm. Meanwhile, 2-fold serial dilutions of test compounds are conducted in a 96 well plate with a final volume of 75 μL per well at 2-fold the final desired concentration. After the dilution plates are set up the growing cultures are then diluted in a cuvette containing MH II broth and the optical density is measured at 600 nm. The Inoculum is diluted such that 75 μL of this culture in Mueller-Hinton Broth results in a starting bacterial concentration of 5×10^5 CFU/mL when added to the dilution plates. The plates are incubated for 16-20 hours at 37° C. The MIC values are read visually as the lowest concentration well with no bacterial growth.

[3] = test system: E. coli AG100; assay: Broth microdilution MIC, E. coli AG100 (wild-type parent); format: cell-based; settings: Escherichia coli; wild-type parent E. coli AG100, broth microdilution; read-out: MIC E. coli AG100
Method: To determine the ability of test compounds to potentiate the inhibition of the growth of bacterial strains, classic cell based broth microdilution minimum inhibitory concentration (MIC) assays were employed.
as §2

[4] = test system: E. coli 901C; assay: microbe, parasite or virus in culture; format: cell-based; settings: Escherichia coli; hyper-permeable E. coli 901C, broth microdilution; read-out: MIC E. coli 901C
Method: as §1, §2

[5] = test system: E. coli AG100A; assay: microbe, parasite or virus in culture; format: cell-based; settings: Escherichia coli, read-out: MIC E. coli AG100A
Method: as §1, §2

[6] = test system: E. coli D22; assay: microbe, parasite or virus in culture; format: cell-based; settings: Escherichia coli; hyper-permeable E. coli D22, broth microdilution; read-out: MIC E. coli D22
Method: as §1, §2

[7] = test system: K. pneumoniae SI-117; assay: microbe, parasite or virus in culture; format: cell-based; settings: Klebsiella pneumoniae, SI117, read-out: MIC K. pneumoniae SI-117
Method: as §1, §2

[8] = test system: K. pneumoniae UMM; assay: microbe, parasite or virus in culture; format: cell-based; settings: Klebsiella pneumoniae; K. pneumoniae UMM producing SHV-5 and KPC-2; read-out: MIC K. pneumoniae UMM
Method: as §1, §2

[9] = test system: K. pneumoniae 848844; assay: microbe, parasite or virus in culture; format: cell-based, Klebsiella pneumoniae; settings: Klebsiella pneumoniae; K. pneumoniae 848844 producing SHV-11 and KPC-2; read-out: MIC K. pneumoniae 848844
Method: as §1, §2

[10] = ATCC25922, E. coli ATCC 25922, broth microdilution, read-out: MIC E. coli 25922
[11] = fluorescence polarization competition binding with Bocillin-FL, read-out: E. coli K12 PBP3 Potency

Chain of E. coli PBP3 (P0AD68 whole entry): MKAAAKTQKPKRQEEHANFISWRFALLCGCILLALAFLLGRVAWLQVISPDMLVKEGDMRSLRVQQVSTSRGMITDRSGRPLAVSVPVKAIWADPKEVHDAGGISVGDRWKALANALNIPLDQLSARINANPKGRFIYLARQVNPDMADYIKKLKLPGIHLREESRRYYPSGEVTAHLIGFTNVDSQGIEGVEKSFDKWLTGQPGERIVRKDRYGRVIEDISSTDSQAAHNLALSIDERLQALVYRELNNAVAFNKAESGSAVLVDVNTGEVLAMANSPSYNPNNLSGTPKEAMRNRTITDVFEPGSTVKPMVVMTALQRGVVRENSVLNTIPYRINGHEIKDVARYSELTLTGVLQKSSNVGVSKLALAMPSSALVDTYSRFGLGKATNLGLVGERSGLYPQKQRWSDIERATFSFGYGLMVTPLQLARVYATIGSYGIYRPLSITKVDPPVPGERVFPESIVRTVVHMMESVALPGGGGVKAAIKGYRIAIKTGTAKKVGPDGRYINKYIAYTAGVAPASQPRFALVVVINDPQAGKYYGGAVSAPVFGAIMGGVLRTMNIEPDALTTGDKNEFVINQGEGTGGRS

Compound	EC50 [1]	MIC [2, 10]	MIC [3]	MIC [4]	MIC [5]	MIC [6]	MIC [7]	MIC [8]	MIC [9]	EC50 [1, 11]	MIC ([2]; ATCC25922, read-out: MIC E. coli 25922)
CCN1CCN(C(=O)NC(C(=O)N[C@H]2Cc3cccc(C(=O)O)c3OB2O)c2ccc(OC)c(S(N)(=O)=O)c2)C(=O)C1=O (stereo partly drawn) [Example 144, (3R)-3-(2-(4-ethyl-2,3-dioxopiperazine-1-carboxamido)-2-(4-methoxy-3-sulfamoylphenyl)acetamido)-2-hydroxy-3,4-dihydro-2H-benzo[e][1,2]oxaborinine-8-carboxylic acid]	30 to 500 µM	> 128 µg/mL	8 to 16 µg/mL	0.5 to 1 µg/mL	8 to 16 µg/mL	8 to 16 µg/mL	> 128 µg/mL	32 to 64 µg/mL	> 128 µg/mL		
CCN1CCN(C(=O)N[C@@H](C(=O)N[C@H]2Cc3cccc(C(=O)O)c3OB2O)c2ccc(S(N)(=O)=O)c(O)c2)C(=O)C1=O [Example 167, (R)-3-((R)-2-(4-ethyl-2,3-dioxopiperazine-1-carboxamido)-2-(3-hydroxy-4-sulfamoylphenyl)acetamido)-2-hydroxy-3,4-dihydro-2H-benzo[e][1,2]oxaborinine-8-carboxylic acid]		32 to 64 µg/mL	32 to 64 µg/mL	< 0.25 µg/mL	2 to 4 µg/mL	2 to 4 µg/mL	> 128 µg/mL	32 to 64 µg/mL	> 128 µg/mL	< 30 µM	
CCOC(=O)c1cccc2c1OB(O)[C@@H](NC(=O)C(NC(=O)N1CCN(CC)C(=O)C1=O)c1ncc(O)cc1F)C2 (stereo partly drawn) [Example 195, Ethyl (3R)-3-(2-(4-ethyl-2,3-dioxopiperazine-1-carboxamido)-2-(3-fluoro-5-hydroxypyridin-2-yl)acetamido)-2-hydroxy-3,4-dihydro-2H-benzo[e][1,2]oxaborinine-8-carboxylate]		> 128 µg/mL	> 128 µg/mL	32 to 64 µg/mL	> 128 µg/mL	> 128 µg/mL	> 128 µg/mL	> 128 µg/mL	> 128 µg/mL	> 500 µM	
CCN1CCN(C(=O)N[C@@H](C)C(=O)N[C@H]2Cc3cccc(C(=O)O)c3OB2O)C(=O)C1=O [Example 8, (R)-3-((S)-2-(4-Ethyl-2,3-dioxopiperazine-1-carboxamido)propanamido)-2-hydroxy-3,4-dihydro-2H-benzo[e][1,2]oxaborinine-8-carboxylic acid]			> 128 µg/mL	> 128 µg/mL	> 128 µg/mL		> 128 µg/mL	> 128 µg/mL			> 128 µg/mL
CCN1CCN(C(=O)NC(C(=O)N[C@H]2Cc3cccc(C(=O)O)c3OB2O)c2ncccc2F)C(=O)C1=O (stereo partly drawn) [Example 162, (3R)-3-(2-(4-ethyl-2,3-dioxopiperazine-1-carboxamido)-2-(3-fluoropyridin-2-yl)acetamido)-2-hydroxy-3,4-dihydro-2H-benzo[e][1,2]oxaborinine-8-carboxylic acid]	30 to 500 µM	32 to 64 µg/mL	32 to 64 µg/mL	0.5 to 1 µg/mL	2 to 4 µg/mL	8 to 16 µg/mL	32 to 64 µg/mL	32 to 64 µg/mL	> 128 µg/mL		
